The values below come from patent publication US20060058317A1, “Oxazolidinone derivatives as antibacterial” (AstraZeneca AB, priority 2002, published 2006).

What all share (format): cell-based
For assay [1], the system named is Linezolid Resistant Streptococcus pneumoniae. Description: MIC by agar dilution, Linezolid Resistant Streptococcus pneumoniae. To be noted: agar with 5% defibrinated horse blood, 10^4 CFU/spot, 37° C., 5% carbon dioxide, 48 hours. As to the method: (§1) The following results were obtained on a standard in-vitro test system. The activity is described in terms of the minimum inhibitory concentration (MIC) determined by the agar-dilution technique with an inoculum size of 10^4 CFU/spot. Typically, compounds are active in the range 0.01 to 256 μg/ml.
(§2) Streptococci and enterococci were tested on agar supplemented with 5% defibrinated horse blood, an inoculum of 10^4 CFU/spot and an incubation temperature of 37° C., in an atmosphere of 5% carbon dioxide for 48 hours—blood is required for the growth of some of the test organisms. Fastidious Gram negative organisms were tested in Mueller-Hinton broth, supplemented with hemin and NAD, grown aerobically for 24 hours at 37° C., and with an innoculum of 5×10^4 CFU/well.
Background: In agar dilution, organisms are placed on agar that contains the substance at set levels.

Assay [2] has as its system Staphylococcus aureus MRQR (methicillin resistant and quinolone resistant). Description: MIC by agar dilution, Staphylococcus aureus MRQR. To be noted: S. aureus MRQR, 10^4 CFU/spot, 37° C., 24 hours. As to the method: as §1
(§3) Staphylococci were tested on agar, using an inoculum of 10^4 CFU/spot and an incubation temperature of 37° C., for 24 hours—standard test conditions for the expression of methicillin resistance.

In a further assay the test system is Haemophilus influenzae. Description: MIC in Mueller-Hinton broth, Haemophilus influenzae. To be noted: Mueller-Hinton broth with hemin and NAD, aerobic, 24 hours, 37° C., 5×10^4 CFU/well. The procedure: as §1, §2
For a further assay, the system named is Streptococcus pneumoniae. In words: MIC by agar dilution, Streptococcus pneumoniae. To be noted: agar with 5% defibrinated horse blood, 10^4 CFU/spot, 37° C., 5% carbon dioxide, 48 hours. The procedure: as §1, §2
The subject of assay [3] is Staphylococcus aureus MSQS (methicillin sensitive and quinolone sensitive). In words: MIC by agar dilution, Staphylococcus aureus MSQS. To be noted: S. aureus MSQS, 10^4 CFU/spot, 37° C., 24 hours. As to the method: as §1, §3
In the next assay the test system is Enterococcus faecium. Description: MIC by agar dilution, Enterococcus faecium. To be noted: agar with 5% defibrinated horse blood, 10^4 CFU/spot, 37° C., 5% carbon dioxide, 48 hours. The procedure:
as §1, §2

The next assay concerns Moraxella catarrhalis. Description: MIC in Mueller-Hinton broth, Moraxella catarrhalis. To be noted: Mueller-Hinton broth with hemin and NAD, aerobic, 24 hours, 37° C., 5×10^4 CFU/well. As to the method: as §1, §2

Converted amounts (≈) assume the structure as drawn.

With `Cn1nnc(-c2ccc(-c3ccc(N4C[C@H](COc5ccon5)OC4=O)cc3F)cn2)n1` [Example 1], the MIC in assay [1] was 64 mg/L (≈ 146 µM); in assay [2], 4 mg/L (≈ 9.15 µM); against Haemophilus influenzae, 64 mg/L (≈ 146 µM); against Streptococcus pneumoniae, 1 mg/L (≈ 2.29 µM); in assay [3], 4 mg/L (≈ 9.15 µM); against Enterococcus faecium, 4 mg/L (≈ 9.15 µM). The molecule further gave an MIC in the assay with Moraxella catarrhalis of 4 mg/L (≈ 9.15 µM).
